What was measured:
[1] = target: T1, STS (Homo sapiens, UniProt P08842); assay: In vitro inhibition of STS; type: cell-based; conditions: STS IC50, JEG-3 cell preparation; sulfamates
T1 sequence (P08842 22-583): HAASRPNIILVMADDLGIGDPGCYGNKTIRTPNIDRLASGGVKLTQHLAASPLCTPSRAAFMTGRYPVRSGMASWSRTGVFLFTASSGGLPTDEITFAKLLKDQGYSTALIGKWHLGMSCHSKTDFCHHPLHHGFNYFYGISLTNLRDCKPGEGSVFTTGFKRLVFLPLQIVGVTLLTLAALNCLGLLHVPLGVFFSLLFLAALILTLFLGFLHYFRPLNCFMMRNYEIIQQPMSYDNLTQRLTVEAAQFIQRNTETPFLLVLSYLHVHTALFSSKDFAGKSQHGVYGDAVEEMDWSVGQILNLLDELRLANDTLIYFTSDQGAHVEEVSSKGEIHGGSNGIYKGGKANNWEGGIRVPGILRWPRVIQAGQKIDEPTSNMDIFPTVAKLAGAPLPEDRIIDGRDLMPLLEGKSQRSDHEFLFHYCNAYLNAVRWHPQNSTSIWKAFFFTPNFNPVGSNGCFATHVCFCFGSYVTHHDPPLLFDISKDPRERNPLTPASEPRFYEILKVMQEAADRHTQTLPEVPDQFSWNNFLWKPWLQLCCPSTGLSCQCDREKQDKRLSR

[2] = tested on: STS; conditions: read-out: STS IC50; placental microsome preparation; cited from earlier work

SMILES	IC50 [1] [nM]	other results
NS(=O)(=O)Oc1ccc(CN(c2cc(F)cc(F)c2)n2cnnc2)cc1 [Compound 21, 4-{[(3,5-Difluorophenyl)(4H-1,2,4-triazol-4-yl)amino]methyl}phenyl sulfamate]	45 ± 5	
NS(=O)(=O)Oc1ccc(CN(c2ccc3c(c2)OC(F)(F)O3)n2cnnc2)cc1 [Compound 22, 4-{[(2,2-Difluorobenzo[d][1,3]dioxol-5-yl)(4H-1,2,4-triazol-4-yl)amino]methyl}phenyl sulfamate]	52 ± 6.6	
N#Cc1ccc(N(Cc2ccc(OS(N)(=O)=O)cc2Cl)n2cnnc2)cc1 [Compound 17, 3-Chloro-4-{[(4-cyanophenyl)(4H-1,2,4-triazol-4-yl)amino]methyl}phenyl sulfamate]	40 ± 5	
Oc1ccc(CN(c2ccc3c(c2)OC(F)(F)O3)n2cnnc2)cc1 [Compound 22 e, 4-{[(2,2-Difluorobenzo[1,3]dioxol-5-yl)-[1,2,4]triazol-4-ylamino]methyl}phenol]		melting point: 182 to 185 °C
N#Cc1ccc(N(Cc2ccc(OS(N)(=O)=O)c(F)c2F)n2cnnc2)cc1 [Compound 13, 4-{[(4-Cyanophenyl)(4H-1,2,4-triazol-4-yl)amino]methyl}-2,3-difluorophenyl sulfamate]	48 ± 2	
N#Cc1ccc(N(Cc2ccc(OS(N)(=O)=O)cc2Br)n2cnnc2)cc1 [Compound 19, 3-Bromo-4-{[(4-cyanophenyl)(4H-1,2,4-triazol-4-yl)amino]methyl}phenyl sulfamate]	29 ± 2	
NS(=O)(=O)Oc1ccc(CN(c2ccccc2)n2cnnc2)cc1 [Compound 20, 4-{[Phenyl(4H-1,2,4-triazol-4-yl)amino]methyl}phenyl sulfamate]	1560 ± 116	
C[C@]12CC[C@@H]3c4cc(C(F)F)c(OS(N)(=O)=O)cc4CC[C@H]3[C@@H]1CCC2=O [2-difluoromethyloestrone 3-O-sulfamate]		IC50 [2]: 0.1 nM
N#Cc1ccc(N(Cc2ccc(OS(N)(=O)=O)c(C(F)F)c2)n2cnnc2)cc1 [Compound 15, 4-{[(4-Cyanophenyl)(4H-1,2,4-triazol-4-yl)amino]methyl}-2-(difluoromethyl)phenyl sulfamate]	60 ± 2.4	
N#Cc1ccc(N(Cc2c(Cl)cc(OS(N)(=O)=O)cc2Cl)n2cnnc2)cc1 [Compound 18, 3,5-Dichloro-4-{[(4-cyanophenyl)(4H-1,2,4-triazol-4-yl)amino]methyl}phenyl sulfamate]	44 ± 6	
N#Cc1ccc(N(Cc2c(F)cc(OS(N)(=O)=O)cc2F)n2cnnc2)cc1 [Compound 12, 4-{[(4-Cyanophenyl)(4H-1,2,4-triazol-4-yl)amino]methyl}-3,5-difluorophenyl sulfamate]	39 ± 1	
N#Cc1ccc(N(Cc2ccc(OS(N)(=O)=O)cc2F)n2cnnc2)cc1 [Compound 11, 4-{[(4-Cyanophenyl)(4H-1,2,4-triazol-4-yl)amino]methyl}-3-fluorophenyl sulfamate]	21 ± 3.5	

Reference: article PMC3743159 (Chemmedchem, 2013)
